Legend:
[1] = tested on: Mus musculus; assay: Decrease in c-KIT phosphorylation in NOD-SCID mouse xenografted with human GIST430 cells harboring c-KIT exon 11 primary in-frame V560-L576 deletion mutant and exon 13 heterozygous secondary missense V654A mutant at 20 mg/kg, po measured after 8 hrs by immunoblotting analysis relative to control; format: functional
[2] = tested on: Mast/stem cell growth factor receptor Kit (Homo sapiens), P10721 [V654A]; assay: Inhibition of human c-KIT ATP binding domain exon 13 V654A single mutant at 100 nM using poly (Glu,Tyr) 4:1 as substrate in presence of 33P-gamma-ATP by hotspot kinase assay relative to control
[3] = tested on: Mast/stem cell growth factor receptor Kit (Homo sapiens), P10721 [K642E]; assay: Inhibition of human c-KIT ATP binding domain exon 13 K642E single mutant at 100 nM using poly (Glu,Tyr) 4:1 as substrate in presence of 33P-gamma-ATP by hotspot kinase assay relative to control
[4] = target: Mast/stem cell growth factor receptor Kit (Homo sapiens, UniProt P10721, D816H); assay: Inhibition of human c-KIT A loop exon 17 D816H single mutant using poly (Glu,Tyr) 4:1 as substrate in presence of 33P-gamma-ATP by hotspot kinase assay
[5] = tested on: Mast/stem cell growth factor receptor Kit (Homo sapiens), P10721 [A829P]; assay: Inhibition of human c-KIT A loop exon 18 A829P single mutant at 100 nM using poly (Glu,Tyr) 4:1 as substrate in presence of 33P-gamma-ATP by hotspot kinase assay relative to control
[6] = target: Mast/stem cell growth factor receptor Kit (Homo sapiens, UniProt P10721, V559D/V654A); assay: Inhibition of human c-KIT […] V559D/V654A double mutant using poly (Glu,Tyr) 4:1 as substrate in presence of 33P-gamma-ATP by hotspot kinase assay
[7] = target: Mast/stem cell growth factor receptor Kit (Homo sapiens, UniProt P10721, D816V/V560G); assay: Inhibition of human c-KIT A loop exon 11/17 V560G/D816V double mutant using poly (Glu,Tyr) 4:1 as substrate in presence of 33P-gamma-ATP by hotspot kinase assay
[8] = tested on: GIST882; assay: Antiproliferative activity against human GIST882 cells harboring c-KIT exon 13 homozygous primary K642E mutant assessed as reduction in cell viability by MTS assay; format: functional
[9] = Half life in ICR mouse at 10 mg/kg, po administered as single dose measured up to 24 hrs by LC-MS/MS analysis; format: ADME, organism-based; conditions: in vivo
[10] = tested on: Mus musculus; assay: Decrease in c-KIT phosphorylation in po dosed NOD-SCID mouse xenografted with human GIST430 cells harboring c-KIT exon 11 primary in-frame V560-L576 deletion mutant and exon 13 heterozygous secondary missense V654A mutant measured after 8 hrs by immunoblotting method; format: functional, organism-based
[11] = tested on: Mast/stem cell growth factor receptor Kit (Homo sapiens), P10721 [D816H]; conditions: at 100 nM
Description: Inhibition of human c-KIT A loop exon 17 D816H single mutant at 100 nM using poly (Glu,Tyr) 4:1 as substrate in presence of 33P-gamma-ATP by hotspot kinase assay relative to control

[12] = tested on: Mast/stem cell growth factor receptor Kit (Homo sapiens), P10721 [D820Y]; conditions: at 100 nM
Mast/stem cell growth factor receptor Kit (Homo sapiens), P10721 [D820Y], sequence (P10721 whole entry D820Y): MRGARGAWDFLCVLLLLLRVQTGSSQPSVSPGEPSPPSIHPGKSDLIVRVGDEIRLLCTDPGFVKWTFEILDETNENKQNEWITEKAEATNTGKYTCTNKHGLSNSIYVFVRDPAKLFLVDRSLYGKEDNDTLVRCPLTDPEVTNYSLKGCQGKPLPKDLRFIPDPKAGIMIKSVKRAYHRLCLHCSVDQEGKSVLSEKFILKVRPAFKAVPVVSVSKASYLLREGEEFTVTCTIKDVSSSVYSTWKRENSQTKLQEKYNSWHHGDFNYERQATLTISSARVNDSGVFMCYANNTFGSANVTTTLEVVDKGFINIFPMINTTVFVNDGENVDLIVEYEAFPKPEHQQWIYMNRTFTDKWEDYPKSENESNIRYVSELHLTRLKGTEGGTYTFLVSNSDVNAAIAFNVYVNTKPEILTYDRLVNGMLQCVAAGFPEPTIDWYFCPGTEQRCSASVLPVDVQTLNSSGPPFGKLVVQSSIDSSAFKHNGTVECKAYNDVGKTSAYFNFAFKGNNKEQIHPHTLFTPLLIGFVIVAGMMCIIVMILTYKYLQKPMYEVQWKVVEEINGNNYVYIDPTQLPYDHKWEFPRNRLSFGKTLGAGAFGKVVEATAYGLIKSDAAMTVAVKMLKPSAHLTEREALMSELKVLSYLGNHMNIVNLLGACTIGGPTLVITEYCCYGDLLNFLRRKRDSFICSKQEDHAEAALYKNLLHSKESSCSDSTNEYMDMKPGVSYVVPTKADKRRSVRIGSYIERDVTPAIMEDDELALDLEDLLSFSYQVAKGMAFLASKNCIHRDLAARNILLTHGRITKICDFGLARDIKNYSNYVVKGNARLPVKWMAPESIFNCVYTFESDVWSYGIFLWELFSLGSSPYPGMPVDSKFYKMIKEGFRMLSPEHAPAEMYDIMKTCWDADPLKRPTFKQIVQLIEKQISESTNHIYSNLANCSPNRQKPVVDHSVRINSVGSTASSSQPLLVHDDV
Description: Inhibition of human c-KIT A loop exon 17 D820Y single mutant at 100 nM using poly (Glu,Tyr) 4:1 as substrate in presence of 33P-gamma-ATP by hotspot kinase assay relative to control

Mast/stem cell growth factor receptor Kit (Homo sapiens), P10721 [V654A], sequence (P10721 whole entry V654A, the tested form may be a part): as the sequence (P10721 whole entry D820Y) above, with V654A, Y820D counted along it
Mast/stem cell growth factor receptor Kit (Homo sapiens), P10721 [D816H], sequence (P10721 whole entry D816H): as the sequence (P10721 whole entry D820Y) above, with D816H, Y820D counted along it
Mast/stem cell growth factor receptor Kit (Homo sapiens, UniProt P10721, D816V/V560G), sequence (P10721 26-976 V560G/D816V limits assumed): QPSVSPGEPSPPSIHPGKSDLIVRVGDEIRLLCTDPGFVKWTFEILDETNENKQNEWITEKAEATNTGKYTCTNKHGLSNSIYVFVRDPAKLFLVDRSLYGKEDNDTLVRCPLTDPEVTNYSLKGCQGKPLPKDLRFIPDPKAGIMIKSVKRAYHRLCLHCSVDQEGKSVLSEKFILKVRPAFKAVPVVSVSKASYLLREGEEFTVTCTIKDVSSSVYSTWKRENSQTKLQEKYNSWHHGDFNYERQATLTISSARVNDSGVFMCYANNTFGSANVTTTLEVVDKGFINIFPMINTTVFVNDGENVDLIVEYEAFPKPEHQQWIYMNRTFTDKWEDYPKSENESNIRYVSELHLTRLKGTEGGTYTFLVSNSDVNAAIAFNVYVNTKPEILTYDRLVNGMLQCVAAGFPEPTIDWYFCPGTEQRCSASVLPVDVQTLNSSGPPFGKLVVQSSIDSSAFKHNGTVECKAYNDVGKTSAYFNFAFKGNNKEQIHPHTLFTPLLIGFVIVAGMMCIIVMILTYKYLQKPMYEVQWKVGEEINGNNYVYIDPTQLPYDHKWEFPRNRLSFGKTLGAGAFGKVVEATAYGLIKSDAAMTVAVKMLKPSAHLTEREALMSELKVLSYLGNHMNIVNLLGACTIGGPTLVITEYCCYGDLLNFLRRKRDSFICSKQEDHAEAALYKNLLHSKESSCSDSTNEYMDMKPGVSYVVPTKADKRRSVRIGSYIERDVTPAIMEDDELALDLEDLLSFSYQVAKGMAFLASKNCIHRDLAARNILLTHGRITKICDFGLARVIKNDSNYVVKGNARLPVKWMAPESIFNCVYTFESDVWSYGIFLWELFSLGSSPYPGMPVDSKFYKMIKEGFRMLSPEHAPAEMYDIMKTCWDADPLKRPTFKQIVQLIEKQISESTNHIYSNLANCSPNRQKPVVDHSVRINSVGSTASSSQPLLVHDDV
Mast/stem cell growth factor receptor Kit (Homo sapiens), P10721 [A829P], sequence (P10721 whole entry A829P): as the sequence (P10721 whole entry D820Y) above, with Y820D, A829P counted along it
Mast/stem cell growth factor receptor Kit (Homo sapiens, UniProt P10721, D816H), sequence (P10721 26-976 D816H limits assumed): as the sequence (P10721 26-976 V560G/D816V limits assumed) above, with G535V, V791H counted along it
Mast/stem cell growth factor receptor Kit (Homo sapiens, UniProt P10721, V559D/V654A), sequence (P10721 26-976 V559D/V654A limits assumed): as the sequence (P10721 26-976 V560G/D816V limits assumed) above, with V534D, G535V, V629A, V791D counted along it
Mast/stem cell growth factor receptor Kit (Homo sapiens), P10721 [K642E], sequence (P10721 whole entry K642E, the tested form may be a part): as the sequence (P10721 whole entry D820Y) above, with K642E, Y820D counted along it

inhibition [2]: 75%
inhibition [3]: 99%
IC50 [4]: 0.67 nM
inhibition [5]: 99%
IC50 [6]: 102 nM
IC50 [7]: 9.27 nM
half-life [9]: 2.8 h
inhibition [11]: 96%
inhibition [12]: 100%
Structure (SMILES): CCc1cc(NC(=O)Nc2ccc(-c3cnc(Nc4cc(N5CCN(CC)CC5)ncn4)s3)cc2)no1
inhibition in vivo at 20 mg/kg [1]: 85%
GI50 [8]: 3 nM
Activity [10]: Dose-dependent effect

Source: ChEMBL document CHEMBL4385613, “Discovery of Conformational Control Inhibitors Switching off the Activated c-KIT and Targeting a Broad Range of Clinically Relevant c-KIT Mutants” (J Med Chem, 2019)
